Measurements published in ChEMBL document CHEMBL1201862, “PubChem BioAssay data set” (2004).
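Protocol summary: plate cells (96-well), add compound at 5 concentrations, incubate 48 h, interpolate endpoints linearly. GI50 is the concentration that inhibits growth by half.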 The source made the active and inactive calls. Cut-off read from the data, not from the text of the source: active = GI50 up to about 1.1 µM and inactive = higher.

Experiments:
Experiment in all cases: DTP human tumour cell line panel, 48 h
786-0 = tested on: 786-0
A498 = tested on: A498
A549 = tested on: A549
ACHN = tested on: ACHN
BT-549 = tested on: BT-549
CAKI-1 = tested on: CAKI-1
CCRF-CEM = tested on: CCRF-CEM
COLO 205 = tested on: COLO 205
DU-145 = tested on: DU-145
EKVX = tested on: EKVX
HCC 2998 = tested on: HCC 2998
HCT-15 = tested on: HCT-15
HL-60 = tested on: HL-60
HOP-62 = tested on: HOP-62
HOP-92 = tested on: HOP-92
HT-29 = tested on: HT-29
Hs-578T = tested on: Hs-578T
IGROV-1 = tested on: IGROV-1
K562 = tested on: K562
KM12 = tested on: KM12
LOX IMVI = tested on: LOX IMVI
M14 = tested on: M14
MCF7 = tested on: MCF7
MDA-MB-231 = tested on: MDA-MB-231
MDA-MB-435 = tested on: MDA-MB-435
MDA-N = tested on: MDA-N
MOLT-4 = tested on: MOLT-4
Malme-3M = tested on: Malme-3M
NCI-H23 = tested on: NCI-H23
NCI-H460 = tested on: NCI-H460
NCI-H522 = tested on: NCI-H522
NCI/ADR-RES = tested on: NCI/ADR-RES
OVCAR-3 = tested on: OVCAR-3
OVCAR-4 = tested on: OVCAR-4
OVCAR-5 = tested on: OVCAR-5
OVCAR-8 = tested on: OVCAR-8
PC-3 = tested on: PC-3
RPMI-8226 = tested on: RPMI-8226
SF-268 = tested on: SF-268
SF-295 = tested on: SF-295
SK-MEL-28 = tested on: SK-MEL-28
SK-MEL-2 = tested on: SK-MEL-2
SK-MEL-5 = tested on: SK-MEL-5
SK-OV-3 = tested on: SK-OV-3
SN12C = tested on: SN12C
SNB-19 = tested on: SNB-19
SNB-75 = tested on: SNB-75
SR = tested on: SR
SW-620 = tested on: SW-620
T47D = tested on: T47D
U-251 = tested on: U-251
UACC-257 = tested on: UACC-257
UACC-62 = tested on: UACC-62
UO-31 = tested on: UO-31
HCT-116 = tested on: HCT-116
NCI-H226 = tested on: NCI-H226
SF-539 = tested on: SF-539
TK-10 = tested on: TK-10
RXF 393 = tested on: RXF 393

Structure (SMILES): Cc1cc(C)nc(NS(=O)(=O)c2ccc(Nc3c4ccccc4nc4c(C(=O)NCCO)cccc34)cc2)n1
- GI50 (786-0): > 10 µM (inactive)
- GI50 (A498): 38.5 µM (inactive)
- GI50 (A549): 29.6 µM (inactive)
- GI50 (ACHN): 19.7 µM (inactive)
- GI50 (BT-549): 17.6 µM (inactive)
- GI50 (CAKI-1): 23.3 µM (inactive)
- GI50 (CCRF-CEM): 10.3 µM (inactive)
- GI50 (COLO 205): 15.1 µM (inactive)
- GI50 (DU-145): 40.8 µM (inactive)
- GI50 (EKVX): 41.5 µM (inactive)
- GI50 (HCC 2998): 10.4 µM (inactive)
- GI50 (HCT-15): 17.8 µM
- GI50 (HL-60): 31.8 µM (inactive)
- GI50 (HOP-62): 9.31 µM (inactive)
- GI50 (HOP-92): > 100 µM (inactive)
- GI50 (HT-29): 13.1 µM (inactive)
- GI50 (Hs-578T): 53.1 µM (inactive)
- GI50 (IGROV-1): 25.8 µM (inactive)
- GI50 (K562): 12.4 µM (inactive)
- GI50 (KM12): 10.9 µM (inactive)
- GI50 (LOX IMVI): 10.6 µM (inactive)
- GI50 (M14): 31.1 µM (inactive)
- GI50 (MCF7): 18 µM (inactive)
- GI50 (MDA-MB-231): 12.4 µM (inactive)
- GI50 (MDA-MB-435): 16.6 µM (inactive)
- GI50 (MDA-N): 18.1 µM (inactive)
- GI50 (MOLT-4): 4.79 µM (inactive)
- GI50 (Malme-3M): 14.8 µM (inactive)
- GI50 (NCI-H23): 23.8 µM (inactive)
- GI50 (NCI-H460): 14.1 µM (inactive)
- GI50 (NCI-H522): 12.3 µM (inactive)
- GI50 (NCI/ADR-RES): 48.5 µM (inactive)
- GI50 (OVCAR-3): 19.8 µM (inactive)
- GI50 (OVCAR-4): 33.3 µM (inactive)
- GI50 (OVCAR-5): 24.5 µM (inactive)
- GI50 (OVCAR-8): 8.24 µM (inactive)
- GI50 (PC-3): 23.2 µM (inactive)
- GI50 (RPMI-8226): 10.3 µM (inactive)
- GI50 (SF-268): 14.5 µM (inactive)
- GI50 (SF-295): 11.8 µM (inactive)
- GI50 (SK-MEL-28): 19.6 µM (inactive)
- GI50 (SK-MEL-2): 11.8 µM (inactive)
- GI50 (SK-MEL-5): 17.1 µM (inactive)
- GI50 (SK-OV-3): 44.9 µM (inactive)
- GI50 (SN12C): 15 µM (inactive)
- GI50 (SNB-19): 16.6 µM (inactive)
- GI50 (SNB-75): 3.27 µM (inactive)
- GI50 (SR): 10.7 µM (inactive)
- GI50 (SW-620): 16.7 µM (inactive)
- GI50 (T47D): 25.9 µM (inactive)
- GI50 (U-251): 17.1 µM (inactive)
- GI50 (UACC-257): > 10 µM (inactive)
- GI50 (UACC-62): 21.5 µM (inactive)
- GI50 (UO-31): > 10 µM (inactive)

Structure (SMILES): C=C1CC[C@@H]2[C@](C)(COC(=O)CCC(=O)OC)CCC[C@@]2(C)[C@@H]1CCC1=CC(=O)OC1
- GI50 (786-0): 70.5 µM (inactive)
- GI50 (A498): > 100 µM (inactive)
- GI50 (A549): > 100 µM (inactive)
- GI50 (ACHN): > 100 µM (inactive)
- GI50 (BT-549): 64.9 µM (inactive)
- GI50 (CAKI-1): 26.2 µM (inactive)
- GI50 (CCRF-CEM): 28.2 µM (inactive)
- GI50 (COLO 205): 77.8 µM (inactive)
- GI50 (DU-145): 71.4 µM (inactive)
- GI50 (EKVX): > 100 µM (inactive)
- GI50 (HCT-116): 59.8 µM (inactive)
- GI50 (HCT-15): 39.5 µM
- GI50 (HL-60): 20.3 µM (inactive)
- GI50 (HOP-62): > 100 µM (inactive)
- GI50 (HT-29): > 100 µM (inactive)
- GI50 (Hs-578T): 77.6 µM (inactive)
- GI50 (IGROV-1): > 100 µM (inactive)
- GI50 (K562): 29 µM (inactive)
- GI50 (KM12): 43.6 µM (inactive)
- GI50 (LOX IMVI): 55.3 µM (inactive)
- GI50 (M14): > 100 µM (inactive)
- GI50 (MCF7): 38.1 µM (inactive)
- GI50 (MDA-MB-231): > 100 µM (inactive)
- GI50 (MDA-MB-435): > 100 µM (inactive)
- GI50 (MDA-N): 56 µM (inactive)
- GI50 (MOLT-4): 17.4 µM (inactive)
- GI50 (Malme-3M): > 100 µM (inactive)
- GI50 (NCI-H226): 74.3 µM (inactive)
- GI50 (NCI-H23): > 100 µM (inactive)
- GI50 (NCI-H460): > 100 µM (inactive)
- GI50 (NCI-H522): 25.9 µM (inactive)
- GI50 (NCI/ADR-RES): 72.8 µM (inactive)
- GI50 (OVCAR-3): 61.4 µM (inactive)
- GI50 (OVCAR-4): > 100 µM (inactive)
- GI50 (OVCAR-5): > 100 µM (inactive)
- GI50 (OVCAR-8): 63 µM (inactive)
- GI50 (PC-3): 41 µM (inactive)
- GI50 (RPMI-8226): 16.1 µM (inactive)
- GI50 (SF-295): > 100 µM (inactive)
- GI50 (SF-539): > 100 µM (inactive)
- GI50 (SK-MEL-28): > 100 µM (inactive)
- GI50 (SK-MEL-2): 43.4 µM (inactive)
- GI50 (SK-MEL-5): 30.5 µM (inactive)
- GI50 (SK-OV-3): > 100 µM (inactive)
- GI50 (SN12C): > 100 µM (inactive)
- GI50 (SNB-19): > 100 µM (inactive)
- GI50 (SR): 21.5 µM (inactive)
- GI50 (SW-620): 46.5 µM (inactive)
- GI50 (T47D): 29.2 µM (inactive)
- GI50 (TK-10): > 100 µM (inactive)
- GI50 (U-251): > 100 µM (inactive)
- GI50 (UACC-257): > 100 µM (inactive)
- GI50 (UO-31): > 100 µM (inactive)

Structure (SMILES): Cc1ccc(/C=C/c2n[nH]c(N/N=C/c3ccc4c(c3)OCO4)nc2=O)cc1
- GI50 (786-0): 14.4 µM (inactive)
- GI50 (A549): 38.5 µM (inactive)
- GI50 (ACHN): 25.2 µM (inactive)
- GI50 (BT-549): 17.9 µM (inactive)
- GI50 (CAKI-1): 33.3 µM (inactive)
- GI50 (CCRF-CEM): 18.7 µM (inactive)
- GI50 (COLO 205): 74.3 µM (inactive)
- GI50 (DU-145): 19.4 µM (inactive)
- GI50 (EKVX): 35.3 µM (inactive)
- GI50 (HCC 2998): 22.3 µM (inactive)
- GI50 (HCT-116): 21.1 µM (inactive)
- GI50 (HCT-15): 44.9 µM
- GI50 (HOP-62): 19 µM (inactive)
- GI50 (HT-29): 24 µM (inactive)
- GI50 (Hs-578T): 13.6 µM (inactive)
- GI50 (IGROV-1): 20.2 µM (inactive)
- GI50 (K562): 30.1 µM (inactive)
- GI50 (KM12): 17.3 µM (inactive)
- GI50 (LOX IMVI): 19.6 µM (inactive)
- GI50 (M14): 36.6 µM (inactive)
- GI50 (MCF7): 23.3 µM (inactive)
- GI50 (MDA-MB-231): 15.5 µM (inactive)
- GI50 (MDA-MB-435): 33.4 µM (inactive)
- GI50 (MDA-N): 25.3 µM (inactive)
- GI50 (MOLT-4): 39.9 µM (inactive)
- GI50 (Malme-3M): 3.28 µM (inactive)
- GI50 (NCI-H226): 26.9 µM (inactive)
- GI50 (NCI-H23): 15.4 µM (inactive)
- GI50 (NCI-H460): 24.9 µM (inactive)
- GI50 (NCI-H522): 28.8 µM (inactive)
- GI50 (NCI/ADR-RES): 9.23 µM (inactive)
- GI50 (OVCAR-3): 19.6 µM (inactive)
- GI50 (OVCAR-4): 19.3 µM (inactive)
- GI50 (OVCAR-5): > 100 µM (inactive)
- GI50 (OVCAR-8): 15.5 µM (inactive)
- GI50 (PC-3): 21 µM (inactive)
- GI50 (RPMI-8226): 67.8 µM (inactive)
- GI50 (RXF 393): 27.2 µM (inactive)
- GI50 (SF-268): 17.2 µM (inactive)
- GI50 (SF-295): 33.7 µM (inactive)
- GI50 (SF-539): 21 µM (inactive)
- GI50 (SK-MEL-28): 16 µM (inactive)
- GI50 (SK-MEL-2): 30.8 µM (inactive)
- GI50 (SK-MEL-5): 30.1 µM (inactive)
- GI50 (SK-OV-3): 30.5 µM (inactive)
- GI50 (SN12C): 18.5 µM (inactive)
- GI50 (SNB-19): 18.5 µM (inactive)
- GI50 (SNB-75): 15 µM (inactive)
- GI50 (SR): 11.2 µM (inactive)
- GI50 (SW-620): 19.5 µM (inactive)
- GI50 (T47D): 36.6 µM (inactive)
- GI50 (TK-10): 25.9 µM (inactive)
- GI50 (U-251): 17.6 µM (inactive)
- GI50 (UACC-257): 40.1 µM (inactive)
- GI50 (UO-31): 88.7 µM (inactive)
